For this assay, the target named is T1, P-glycoprotein (P-gp/ABCB1) (Homo sapiens, UniProt P08183).
T1 construct: full-length human P-gp; MDR1 baculovirus in High-Five insect cell total membranes (ATPase); transfected MDR19-HEK293 cells (calcein efflux)
The assay is described as follows: vanadate-sensitive ATPase activity, endpoint inorganic phosphate assay, insect cell membranes. It counts as biochemical. The text has this:
vanadate-sensitive ATPase activity, endpoint inorganic phosphate assay, insect cell membranes on P-glycoprotein (P-gp/ABCB1) | half maximal effective concentration (EC50) value

What is called EC50 is the midpoint of the concentration-response curve. Lower therefore signals an effect from little substance.

T1 sequence (P08183 whole entry): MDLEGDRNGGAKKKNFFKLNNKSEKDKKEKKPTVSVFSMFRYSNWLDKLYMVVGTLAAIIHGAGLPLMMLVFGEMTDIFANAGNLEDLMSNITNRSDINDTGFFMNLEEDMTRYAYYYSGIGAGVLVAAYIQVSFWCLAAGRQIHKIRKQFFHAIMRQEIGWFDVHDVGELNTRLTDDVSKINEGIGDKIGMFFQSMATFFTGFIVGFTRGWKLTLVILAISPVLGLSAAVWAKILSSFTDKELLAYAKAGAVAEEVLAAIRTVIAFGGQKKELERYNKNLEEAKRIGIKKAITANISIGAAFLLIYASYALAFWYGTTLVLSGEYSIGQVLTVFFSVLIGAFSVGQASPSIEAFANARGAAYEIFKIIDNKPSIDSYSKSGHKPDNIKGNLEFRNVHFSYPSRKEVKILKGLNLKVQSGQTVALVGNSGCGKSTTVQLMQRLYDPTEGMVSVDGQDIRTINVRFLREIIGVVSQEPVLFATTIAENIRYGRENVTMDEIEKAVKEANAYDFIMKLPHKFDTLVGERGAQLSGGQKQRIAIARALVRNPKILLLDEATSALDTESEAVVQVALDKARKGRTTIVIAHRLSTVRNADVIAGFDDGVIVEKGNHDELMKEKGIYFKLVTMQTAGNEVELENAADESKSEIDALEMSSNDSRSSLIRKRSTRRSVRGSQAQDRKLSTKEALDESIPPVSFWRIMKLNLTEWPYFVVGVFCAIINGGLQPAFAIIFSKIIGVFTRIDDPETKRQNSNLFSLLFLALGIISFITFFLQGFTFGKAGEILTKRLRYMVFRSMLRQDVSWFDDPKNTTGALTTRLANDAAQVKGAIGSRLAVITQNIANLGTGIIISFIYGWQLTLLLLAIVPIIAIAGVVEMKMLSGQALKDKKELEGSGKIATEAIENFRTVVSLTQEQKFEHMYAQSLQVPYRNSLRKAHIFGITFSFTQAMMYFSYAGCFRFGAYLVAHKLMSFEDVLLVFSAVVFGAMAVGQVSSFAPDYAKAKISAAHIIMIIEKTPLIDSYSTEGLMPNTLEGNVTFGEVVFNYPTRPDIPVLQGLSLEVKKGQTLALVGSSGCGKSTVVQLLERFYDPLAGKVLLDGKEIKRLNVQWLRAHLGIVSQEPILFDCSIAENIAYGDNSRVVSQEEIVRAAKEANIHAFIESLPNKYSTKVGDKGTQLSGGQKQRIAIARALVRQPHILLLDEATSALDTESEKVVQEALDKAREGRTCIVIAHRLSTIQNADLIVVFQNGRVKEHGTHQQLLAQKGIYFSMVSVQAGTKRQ

With `CC#CC(=O)N[C@H]1CCCN(c2c(F)cc(C(N)=O)c3[nH]c(C)c(C)c23)C1` [branebrutinib], the EC50 is ~4.5 µM.

Source of the values: paper PMC8326665, “Branebrutinib (BMS-986195), a Bruton’s Tyrosine Kinase Inhibitor, Resensitizes P-Glycoprotein-Overexpressing Multidrug-Resistant Cancer Cells to Chemotherapeutic Agents” (Frontiers in Cell and Developmental Biology, 2021).
